A short description of data set [1]: Therapeutic index was determined; Value is >222 but < 1,111. Conditions: read-out: TI.
Data set [2] can be described thus: Therapeutic index was determined; Value is >78049 but < 390244. Conditions: read-out: TI.
The nature of data set [3]: Effective concentration against HIV-1 infection in peripheral blood mononuclear cells was determined. Conditions: Homo sapiens. It counts as functional.
Data set [4] deals with H9. The data set is described as follows: Compound was tested for inhibitory activity against HIV-1 replication in H9 lymphocyte cells; Activity range >32 but <160. It counts as functional, cell-based. Conditions: Homo sapiens.
Data set [5] has as its system H9. The data set is described as follows: Effective concentration against HIV-1 replication in H9 lymphocyte cells was determined. It counts as functional, cell-based. Conditions: Homo sapiens.
Another data set deals with U-937. The data set is described as follows: Effective concentration against HIV-1 infection in U-937 cell line was determined. It counts as functional, cell-based. Conditions: Homo sapiens.
Data set [6] can be described thus: Therapeutic index was determined; Value is >3,125 but < 15,625. Conditions: read-out: TI.
The nature of data set [7]: Therapeutic index was determined. Conditions: read-out: TI.
Data set [8] relates to H9. Put plainly: Effective concentration against HIV-1 replication in H9 lymphocyte cells was determined; Activity >6.4 but < 32. It counts as functional, cell-based. Conditions: Homo sapiens.
Data set [9] has as its system H9. The data set is described as follows: Compound was tested for inhibitory activity against HIV-1 replication in H9 lymphocyte cells; Activity >6.4 but < 32. It counts as functional, cell-based. Conditions: Homo sapiens.
Data set [10] has as its system H9. Put plainly: Compound was tested for inhibitory activity against HIV-1 replication in H9 lymphocyte cells. It counts as functional, cell-based. Conditions: Homo sapiens.

Broadly, the EC50 is the midpoint of the concentration-response curve. Read a high EC50 as weaker potency. As usually defined, the IC50 is the concentration at which inhibition is half-maximal. Higher therefore signals a need for much substance.

Regarding `CC1(C)Oc2ccc3ccc(=O)oc3c2[C@@H](OC(=O)C23CCC(C)(C(=O)O2)C3(C)C)[C@H]1OC(=O)C12CCC(C)(C(=O)O1)C2(C)C` (stereo not given in full), the selectivity ratio is greater than 222 in data set [1], less than 390000 in data set [2] and greater than 3120 in data set [6]. Besides, the EC50 in data set [3] was found to be 0.029 µM; in the data set on H9 [5], 0.00041 µM; in the data set on U-937 it was 0.0021 µM. The same compound registered an IC50 in the data set with H9 [4] of less than 160 µM.

Consider `CC1(C)Oc2ccc3ccc(=O)oc3c2[C@H](OC(=O)C23CCC(C)(C(=O)O2)C3(C)C)[C@H]1OC(=O)C12CCC(C)(C(=O)O1)C2(C)C` (stereo not given in full), for which, in [7], the selectivity ratio is greater than 1. The compound also gave a half-maximal effective concentration (EC50) in the data set with H9 [8] of less than 32 µM. The compound further came in with an IC50 with H9 [9] of less than 32 µM.

As for `CC1(C)Oc2ccc3ccc(=O)oc3c2[C@H](OC(=O)C23CCC(C)(C(=O)O2)C3(C)C)[C@@H]1OC(=O)C12CCC(C)(C(=O)O1)C2(C)C` (stereo not given in full), the selectivity ratio in [7] was greater than 33.3. Besides, in the data set on H9 [5], it took 51 µM to reach a half-maximal effect (EC50). The same compound gave an IC50 with H9 [10] of 1700 µM.

`CC1(C)Oc2ccc3ccc(=O)oc3c2[C@@H](OC(=O)C23CCC(C)(C(=O)O2)C3(C)C)[C@@H]1OC(=O)C12CCC(C)(C(=O)O1)C2(C)C` (stereo not given in full): the selectivity ratio in data set [7] is greater than 1. This compound yielded an EC50 in the data set on H9 [5] of 32 µM. This compound also gave an IC50 with H9 [10] greater than 32 µM.

In the case of `CC(=O)O[C@@H]1[C@H](OC(=O)CC(C)C)c2c(ccc3ccc(=O)oc23)OC1(C)C` [SUKSDORFIN], the selectivity ratio in data set [7] was greater than 40. The same compound gave a concentration giving a half-maximal response (EC50) in the data set with H9 [5] of 1.3 µM. Further, in the data set with H9 [10], the IC50 was greater than 52 µM.

In turn, `Cc1cn([C@H]2C[C@H](N=[N+]=[N-])[C@@H](CO)O2)c(=O)[nH]c1=O` [ZIDOVUDINE] gave an EC50 in the data set on H9 [5] of 0.15 µM.
